Marks after values point to notes of the source that are not given here.
Legend:
[1] = tested on: LOVO xenografts; assay: LOVO xenografts in nude mice; format: in vivo; details: LOVO xenograft nude mice; for Anti-tumor rate (%) / Body weight (g) Post-dose / Tumor weight: 1 mg/kg; for Body weight (g) Pre-dose: before dosing
Experimental: (§1) Experimental method: The MDA-MB-231 cells at logarithmic phase were digested and washed twice with PBS. Then, 100 μL cells (1×10^7) were inoculated subcutaneously on the backs of female BALB/nu/nu mice. After tumors grew to 70˜100 mm^3, the mice were divided randomly into saline group (control group), vinca alkaloids groups (VLB, CCRB, CCFN, CCXJ) and vinca alkaloid derivatives groups (JJ-CCJ, BX-CCJ, JJ-CCRB, BX-CCRB, JJ-CCFN, BX-CCFN, JJ-CCXJ and BX-CCXJ), with six mice per group. 1 mg/kg drugs were injected intraperitoneally every two days, meanwhile body weight and tumor sizes were measured. Experiment was ended after 8 times of drug administration, then tumor and organs were stripped. Tumor volumes were measured using the following formula: V=½(ab^2), whereas a refers to the longest diameter and b is the shortest diameter.
(§2) Tumor xenograft models of HepG2, LOVO, K562 and HL-60 cell lines were performed as the method described above.

[2] = tested on: K562 xenografts; assay: K562 xenografts in nude mice; format: in vivo; details: K562 xenograft nude mice; for Anti-tumor rate (%) / Body weight (g) Post-dose / Tumor weight: 1 mg/kg; for Body weight (g) Pre-dose: before dosing
Experimental: as §1, §2

[3] = tested on: human promyelocytic leukemia cell line HL-60; assay: MTT cell growth inhibition, HL-60; format: cell-based; details: Homo sapiens; HL-60, MTT assay, 72 h; read-out: IC50, growth of tumor cell line
From the text: (§3) Experimental method: Cell lines (human non-small-cell lung cancer cell line A549, human colon cancer cell line LOVO, human nasopharyngeal carcinoma cell line CNE-2, human liver cancer cell line HepG2, human cervical carcinoma cell line Hela, human breast cancer cell lines MCF-7 and MDA-MB-231, human gastric carcinoma cell line NCI-N87, human prostatic cancer cell lines PC-3 and DU145, human leukemia cell line K562, human melanoma cell line A375, human neuroblastoma cell line SH-SY5H, human promyelocytic leukemia cell line HL-60, 5-FU-resistant human hepatocellular carcinoma cell line BEL-7402/5-Fu, doxorubicin-resistant hepatocellular carcinoma cell line HepG2/ADM, doxorubicin-resistant human breast cancer cell lines MCF-7/ADR) at logarithmic phase were resuspended in RPMI 1640 medium (containing 10% fetal bovine serum, 100 U/mL penicillin-streptomycin). Then, 100 μL of cells (cell concentration was 5×10^5/mL) were seeded into 96 wells plate. After 24 h incubation at 37° C. with 5% CO2, tested compounds were added (the control group without compound) for an additional 72 h incubation. After that, 30 μL of MTT [3-(4,5-Dimethylthiazol-2-yl)-2,5-diphenyltetrazolium bromide] solution (5 mg/mL) was added into each well and incubated for another 4 h at 37° C. and then the formazan crystals were solubilized with 100 μL DMSO. Finally, absorbance of each well was determined at 570 nm by a microplate reader (Thermo).
(§4) The concentration required to inhibit cell growth by 50% (IC50) was calculated from survival curves.

[4] = tested on: human gastric carcinoma cell line NCI-N87; assay: MTT cell growth inhibition, NCI-N87; format: cell-based; details: Homo sapiens; NCI-N87, MTT assay, 72 h; read-out: IC50, growth of tumor cell line
From the text: as §3, §4

[5] = tested on: human prostatic cancer cell line DU145; assay: MTT cell growth inhibition, DU-145; format: cell-based; details: Homo sapiens; DU-145, MTT assay, 72 h; read-out: IC50, growth of tumor cell line
From the text: as §3, §4

[6] = tested on: doxorubicin-resistant hepatocellular carcinoma cell line HepG2/ADM; assay: MTT cell growth inhibition, HepG2/ADM; format: cell-based, human; details: Homo sapiens, MTT assay, 72 h, read-out: IC50, growth of tumor cell line
From the text: as §3, §4

[7] = tested on: doxorubicin-resistant human breast cancer cell lines MCF-7/ADR; assay: MTT cell growth inhibition, MCF-7/ADR; format: cell-based; details: Homo sapiens, NCI/ADR-RES, MTT assay, 72 h, read-out: IC50, growth of tumor cell line
From the text: as §3, §4

[8] = tested on: HL-60 xenografts; assay: HL-60 xenografts in nude mice; format: in vivo; details: HL-60 xenograft nude mice; for Anti-tumor rate (%) / Body weight (g) Post-dose / Tumor weight: 1 mg/kg; for Body weight (g) Pre-dose: before dosing
Experimental: as §1, §2

[9] = tested on: human melanoma cell line A375; assay: MTT cell growth inhibition, A375; format: cell-based; details: Homo sapiens, A-375; A375, MTT assay, 72 h; read-out: IC50, growth of tumor cell line
From the text: as §3, §4

[10] = tested on: MDA-MB-231 xenografts; assay: MDA-MB-231 xenografts in nude mice; format: in vivo, BALB/nu/nu mice; details: MDA-MB-231 xenograft nude mice; for Anti-tumor rate (%) / Body weight (g) Post-dose / Tumor weight: 1 mg/kg i.p. every two days, 8 administrations; for Body weight (g) Pre-dose: before dosing
Experimental: as §1

[11] = tested on: human non-small-cell lung cancer cell line A549; assay: MTT cell growth inhibition, A549; format: cell-based; details: Homo sapiens; A549, MTT assay, 72 h; read-out: IC50, growth of tumor cell line
From the text: as §3, §4

[12] = tested on: human cervical carcinoma cell line Hela; assay: MTT cell growth inhibition, Hela; format: cell-based; details: Homo sapiens, MTT assay, 72 h, read-out: IC50, growth of tumor cell line
From the text: as §3, §4

[13] = tested on: human prostatic cancer cell line PC-3; assay: MTT cell growth inhibition, PC-3; format: cell-based; details: Homo sapiens; PC-3, MTT assay, 72 h; read-out: IC50, growth of tumor cell line
From the text: as §3, §4

[14] = tested on: human liver cancer cell line HepG2; assay: MTT cell growth inhibition, HepG2; format: cell-based; details: Homo sapiens; HepG2, MTT assay, 72 h; read-out: IC50, growth of tumor cell line
[15] = tested on: human neuroblastoma cell line SH-SY5H; assay: MTT cell growth inhibition, SH-SY5H; format: cell-based; details: Homo sapiens, Neuroblastoma cell, MTT assay, 72 h, read-out: IC50, growth of tumor cell line
From the text: as §3, §4

[16] = tested on: human breast cancer cell line MDA-MB-231; assay: MTT cell growth inhibition, MDA-MB-231; format: cell-based; details: Homo sapiens; MDA-MB-231, MTT assay, 72 h; read-out: IC50, growth of tumor cell line
From the text: as §3, §4

[17] = tested on: human colon cancer cell line LOVO; assay: MTT cell growth inhibition, LOVO; format: cell-based; details: Homo sapiens; LOVO (FAPα positive), MTT assay, 72 h; read-out: IC50, growth of tumor cell line
From the text: as §3, §4

[18] = tested on: human breast cancer cell line MCF-7; assay: MTT cell growth inhibition, MCF-7; format: cell-based; details: Homo sapiens, MCF7; MCF-7, MTT assay, 72 h; read-out: IC50, growth of tumor cell line
From the text: as §3, §4

[19] = tested on: HepG2 xenografts; assay: HepG2 xenografts in nude mice; format: in vivo; details: HepG2 xenograft nude mice; for Anti-tumor rate (%) / Body weight (g) Post-dose / Tumor weight: 1 mg/kg; for Body weight (g) Pre-dose: before dosing
Experimental: as §1, §2

[20] = tested on: human leukemia cell line K562; assay: MTT cell growth inhibition, K562; format: cell-based; details: Homo sapiens; K562, MTT assay, 72 h; read-out: IC50, growth of tumor cell line
From the text: as §3, §4

[21] = tested on: 5-FU-resistant human hepatocellular carcinoma cell line BEL-7402/5-Fu; assay: MTT cell growth inhibition, BEL-7402/5-Fu; format: cell-based; details: Homo sapiens, Bel7402/5-FU, MTT assay, 72 h, read-out: IC50, growth of tumor cell line
From the text: as §3, §4

[22] = tested on: human nasopharyngeal carcinoma cell line CNE-2; assay: MTT cell growth inhibition, CNE-2; format: cell-based; details: Homo sapiens; CNE-2, MTT assay, 72 h; read-out: IC50, growth of tumor cell line
From the text: as §3, §4

[23] = MTT cytotoxicity on normal cells, LO2; details: human, LO2 cells (human normal liver cells)
Experimental: Then, 100 μL of cells (cell concentration was 5×10^5/mL) were seeded into 96 wells plate. After 24 h incubation at 37° C. with 5% CO2, tested compounds were added (the control group without compound) for an additional 72 h incubation. After that, 30 μL of MTT [3-(4,5-Dimethylthiazol-2-yl)-2,5-diphenyltetrazolium bromide] solution (5 mg/mL) was added into each well and incubated for another 4 h at 37° C. and then the formazan crystals were solubilized with 100 μL DMSO. Finally, absorbance of each well was determined at 570 nm by a microplate reader (Thermo).
The standard curve was drew with compound concentrations as the abscissa and cell growth inhibition rates as the ordinate. The concentration required to inhibit cell growth by 50% (IC50) was calculated from survival curves.
Experimental method: In vitro cytotoxicities of vinca alkaloids, hydrazinolyzed vinca alkaloids and vinca alkaloid dipeptide derivatives on human normal liver cells LO2 and human umbilical vein endothelial cells HUVEC were detected according to the method of Example 2.

[24] = MTT cytotoxicity on normal cells, HUVEC; details: human, HUVEC (human umbilical vein endothelial cells)

SMILES | Anti-tumor rate (%) [1] | Body weight (g) Post-dose [1] [g] | Tumor weight [1] [g] | Body weight (g) Pre-dose [1] [g] | IC50 [3] [nM] | IC50 [4] [nM] | IC50 [5] [nM] | IC50 [6] [nM] | IC50 [9] [nM] | IC50 [11] [nM] | IC50 [12] [nM] | IC50 [13] [nM] | IC50 [14] [nM] | IC50 [15] [nM] | IC50 [16] [nM] | IC50 [17] [nM] | IC50 [18] [nM] | IC50 [20] [nM] | IC50 [21] [nM] | IC50 [22] [nM] | further results
CC[C@]12C=CCN3CC[C@@]4(c5cc([C@@]6(C(=O)OC)C[C@@H]7C[C@@H](C(C)(F)F)CN(Cc8c6[nH]c6ccccc86)C7)c(OC)cc5N(C)[C@H]4[C@@](O)(C(=O)NN)[C@@H]1O)[C@@H]32 [JJ-CCFN, hydrazinolyzed vinflunine] | 76.31** % | 18.9 ± 2.1 | 0.68 ± 0.13 | 22.7 ± 1.5 | 198 ± 19.5 | 133 ± 6.7 | 90.8 ± 5.45 | 277 ± 9.67 | 132 ± 9.51 | 206 ± 6.79 | 132 ± 6.67 | 98.3 ± 3.19 | 103 ± 6.37 | 159 ± 20.4 | 333 ± 12.5 | 313 ± 7.64 | 304 ± 9.44 | 55.9 ± 7.59 | 166 ± 5.77 | 198 ± 7.71 | Anti-tumor rate (%) [2]: 57.74** %; Body weight (g) Post-dose [2]: 17.4 ± 0.9 g; Tumor weight [2]: 0.71 ± 0.21 g; Body weight (g) Pre-dose [2]: 21.5 ± 2.1 g; IC50 [7]: 713 ± 25.6 nM; Anti-tumor rate (%) [8]: 60.10** %; Body weight (g) Post-dose [8]: 17.3 ± 0.1 g; Tumor weight [8]: 0.83 ± 0.13 g; Body weight (g) Pre-dose [8]: 19.2 ± 1.9 g; Anti-tumor rate (%) [10]: 75.10** %; Body weight (g) Post-dose [10]: 16.3 ± 0.7 g; Tumor weight [10]: 0.65 ± 0.13 g; Body weight (g) Pre-dose [10]: 19.7 ± 2.1 g; Anti-tumor rate (%) [19]: 75.69** %; Body weight (g) Post-dose [19]: 16.5 ± 0.4 g; Tumor weight [19]: 0.62 ± 0.19 g; Body weight (g) Pre-dose [19]: 22.3 ± 1.7 g
CCC1=C[C@@H]2CN(C1)Cc1c([nH]c3ccccc13)[C@@](C(=O)OC)(c1cc3c(cc1OC)N(C)[C@H]1[C@@](O)(C(=O)NN)[C@H](O)[C@]4(CC)C=CCN5CC[C@]31[C@@H]54)C2 [JJ-CCRB, hydrazinolyzed vinorelbine] | 69.69** % | 16.4 ± 0.7 | 0.87 ± 0.16 | 23.2 ± 2.1 | 46.8 ± 5.41 | 89 ± 3.34 | 60.4 ± 7.01 | 182 ± 4.38 | 20.4 ± 2.85 | 73.1 ± 2.36 | 61.3 ± 3.12 | 65.9 ± 3.05 | 89.31 ± 0.71 | 32.9 ± 3.27 | 101 ± 7.65 | 121 ± 10.3 | 122 ± 5.75 | 49.7 ± 3.39 | 143 ± 8.57 | 100 ± 5.9 | Anti-tumor rate (%) [2]: 59.52** %; Body weight (g) Post-dose [2]: 18.2 ± 0.5 g; Tumor weight [2]: 0.68 ± 0.20 g; Body weight (g) Pre-dose [2]: 21.8 ± 1.4 g; Anti-tumor rate (%) [8]: 65.38** %; Body weight (g) Post-dose [8]: 17.1 ± 0.3 g; Tumor weight [8]: 0.72 ± 0.21 g; Body weight (g) Pre-dose [8]: 19.5 ± 1.3 g; Anti-tumor rate (%) [10]: 77.39** %; Body weight (g) Post-dose [10]: 16.7 ± 1.4 g; Tumor weight [10]: 0.59 ± 0.18 g; Body weight (g) Pre-dose [10]: 21.0 ± 2.7 g; Anti-tumor rate (%) [19]: 75.29** %; Body weight (g) Post-dose [19]: 17.0 ± 0.8 g; Tumor weight [19]: 0.63 ± 0.29 g; Body weight (g) Pre-dose [19]: 21.9 ± 1.6 g
CC[C@]1(O)C[C@@H]2CN(CCc3c([nH]c4ccccc34)[C@@](C(=O)OC)(c3cc4c(cc3OC)N[C@H]3[C@@](O)(C(=O)NN)[C@H](O)[C@]5(CC)C=CCN6CC[C@]43[C@@H]65)C2)C1 [JJ-CCXJ, hydrazinolyzed vincristine] | 73.52** % | 17.5 ± 1.3 | 0.76 ± 0.16 | 22.9 ± 2.3 | 32.5 ± 3.51 | 10.7 ± 1.78 | 18.4 ± 3.67 | 44.9 ± 3.67 | 15.6 ± 2.38 | 4.34 ± 0.42 | 23.6 ± 2.97 | 27.1 ± 2.18 | 12.3 ± 1.96 | 18.7 ± 2.54 | 7.37 ± 1.18 | 24.3 ± 1.09 | 26.9 ± 4.38 | 12.1 ± 1.67 | 106 ± 5.87 | 8.37 ± 2.7 | Anti-tumor rate (%) [2]: 60.12** %; Body weight (g) Post-dose [2]: 17.1 ± 0.3 g; Tumor weight [2]: 0.67 ± 0.22 g; Body weight (g) Pre-dose [2]: 22.4 ± 1.7 g; IC50 [7]: 63.2 ± 7.74 nM; Anti-tumor rate (%) [8]: 59.62** %; Body weight (g) Post-dose [8]: 16.3 ± 0.6 g; Tumor weight [8]: 0.84 ± 0.13 g; Body weight (g) Pre-dose [8]: 19.7 ± 1.5 g; Anti-tumor rate (%) [10]: 75.86** %; Body weight (g) Post-dose [10]: 17.3 ± 1.2 g; Tumor weight [10]: 0.63 ± 0.15 g; Body weight (g) Pre-dose [10]: 21.1 ± 2.5 g; Anti-tumor rate (%) [19]: 79.21** %; Body weight (g) Post-dose [19]: 17.8 ± 0.9 g; Tumor weight [19]: 0.53 ± 0.12 g; Body weight (g) Pre-dose [19]: 22.0 ± 2.1 g
CC[C@]12C=CCN3CC[C@@]4(c5cc([C@@]6(C(=O)OC)C[C@@H]7C[C@@H](C(C)(F)F)CN(Cc8c6[nH]c6ccccc86)C7)c(OC)cc5N(C)[C@H]4[C@@](O)(C(=O)OC)[C@@H]1OC(C)=O)[C@@H]32 [Vinflunine, reference compound] | – | – | – | – | 41.8 ± 6.85 | 57.5 ± 3.95 | 22.3 ± 1.67 | 67.1 ± 4.39 | 39.8 ± 5.29 | 137 ± 4.1 | 56.7 ± 4.47 | 31.1 ± 5.34 | 32.1 ± 2.17 | 52.4 ± 6.81 | 61.3 ± 7.44 | 146 ± 7.21 | 77 ± 2.74 | 19.3 ± 2.48 | 45.7 ± 3.98 | 67.4 ± 3.42 | IC50 [7]: 154 ± 3.95 nM
CCC1=C[C@@H]2CN(C1)Cc1c([nH]c3ccccc13)[C@@](C(=O)OC)(c1cc3c(cc1OC)N(C)[C@H]1[C@@](O)(C(=O)OC)[C@H](OC(C)=O)[C@]4(CC)C=CCN5CC[C@]31[C@@H]54)C2 [Vinorelbine, reference compound] | – | – | – | – | 8.68 ± 1.35 | 35.8 ± 6.57 | 19.9 ± 0.57 | 24.4 ± 3.82 | 5.64 ± 0.95 | 14.5 ± 1.07 | 11.4 ± 1.04 | 23.7 ± 4.31 | 8.34 ± 0.53 | 4.78 ± 0.84 | 39.7 ± 5.79 | 7.86 ± 0.16 | 49.5 ± 2.01 | 12.2 ± 0.54 | 36.1 ± 4.78 | 9.03 ± 0.35 | IC50 at 72 h [23]: 0.97 ± 0.08 nM; IC50 at 72 h [24]: 1.13 ± 0.56 nM

From patent US10377774B2 (JINAN UNIVERSITY, priority 2013, dated 2019)
